In ChEMBL document CHEMBL1201862, “PubChem BioAssay data set” (2004):
Structures can show the parent of a compound that is named as a salt.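 Where inhibition never reached the appropriate level, the endpoint shown equals the highest concentration tested. Otherwise, values were interpolated linearly from a five-concentration, 48-hour dose response in 96-well plates. Here, GI50 denotes the concentration required for 50% inhibition of growth.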 Active and inactive are the calls of the source. Rule as the data show it: active = GI50 up to about 1.1 µM and inactive = higher.

Tests used:
Assay in all cases: DTP human tumour cell line panel, 48 h
SNB-78 = tested on: SNB-78
HOP-18 = tested on: HOP-18
RXF 631 = tested on: RXF 631
KM-20L2 = tested on: KM-20L2
XF498 = tested on: XF498
T47D = tested on: T47D
MDA-MB-231 = tested on: MDA-MB-231
BT-549 = tested on: BT-549
Hs-578T = tested on: Hs-578T

## CC(=O)N[C@@H]1C(O)CN2C(=O)C(=O)O[C@H](C(O)CO)[C@@H]12 (some centres not stated)
SNB-78
  GI50: > 100 µM (inactive)
HOP-18
  GI50: 74 µM (inactive)
RXF 631
  GI50: > 100 µM (inactive)
KM-20L2
  GI50: > 100 µM (inactive)
XF498
  GI50: > 100 µM (inactive)

## O=P(c1ccccc1)(c1ccccc1)C1CC=C(c2ccccc2)C2(CCCC2)C1 (configuration not stated)
SNB-78
  GI50: > 100 µM (inactive)
HOP-18
  GI50: 25.6 µM (inactive)
RXF 631
  GI50: 40.1 µM (inactive)
KM-20L2
  GI50: 33.7 µM (inactive)
XF498
  GI50: 65.5 µM (inactive)

## C=CCNC(=O)C(C)C1CCC2(C)C=CC(=O)C(C)=C2C1O (configuration not stated)
SNB-78
  GI50: > 25.8 µM (inactive)
HOP-18
  GI50: > 100 µM (inactive)
KM-20L2
  GI50: > 100 µM (inactive)
XF498
  GI50: > 100 µM (inactive)

## COc1ccc(-c2cc(N3CCN(c4ccc(Cl)cc4)CC3)c(C#N)c(=O)o2)cc1
SNB-78
  GI50: 11.7 µM (inactive)
HOP-18
  GI50: 4.24 µM (inactive)
KM-20L2
  GI50: > 100 µM (inactive)
XF498
  GI50: 3.09 µM (inactive)

## O=c1ccc2ccccc2o1 [COUMARIN]
SNB-78
  GI50: > 100 µM (inactive)
HOP-18
  GI50: > 100 µM (inactive)
KM-20L2
  GI50: > 100 µM (inactive)
XF498
  GI50: > 100 µM (inactive)

## COc1nc(N)c(NC(C)=O)c(=O)n1C
SNB-78
  GI50: > 100 µM (inactive)
HOP-18
  GI50: > 100 µM (inactive)
RXF 631
  GI50: > 100 µM (inactive)
KM-20L2
  GI50: > 100 µM (inactive)
XF498
  GI50: > 100 µM (inactive)

## Cc1ccc(/C=C/C(=O)c2ccc([N+](=O)[O-])cc2)cc1
SNB-78
  GI50: > 100 µM (inactive)
HOP-18
  GI50: > 100 µM (inactive)
RXF 631
  GI50: > 100 µM (inactive)
KM-20L2
  GI50: > 100 µM (inactive)
XF498
  GI50: > 100 µM (inactive)

## O=C(O)CCC(NC(=O)c1ccc(Nc2cnc3cc(C(F)(F)F)ccc3n2)cc1)C(=O)O (configuration not stated)
SNB-78
  GI50: > 100 µM (inactive)
HOP-18
  GI50: > 100 µM (inactive)
KM-20L2
  GI50: > 100 µM (inactive)
XF498
  GI50: > 100 µM (inactive)

## COc1ccc(C(=O)C(C(=O)C(=O)NCCCNC(=O)C(=O)C(C(=O)c2ccc(OC)cc2)c2ccc(OC)cc2)c2ccc(OC)cc2)cc1 (configuration not stated)
SNB-78
  GI50: > 100 µM (inactive)
HOP-18
  GI50: > 100 µM (inactive)
KM-20L2
  GI50: > 100 µM (inactive)
XF498
  GI50: > 100 µM (inactive)

## CC12CCC3C(CCC4(O)C=CCCC34C=O)C1(O)CC(O)C2c1ccc(=O)oc1 (configuration not stated)
SNB-78
  GI50: 0.0593 µM (active)
HOP-18
  GI50: 0.0679 µM (active)
KM-20L2
  GI50: 0.0668 µM (active)
XF498
  GI50: 0.0873 µM (active)

## CC(C)=CCc1c(O)ccc2c1OC1c3ccc(O)c(CC=C(C)C)c3OCC21 (configuration not stated)
SNB-78
  GI50: 12.1 µM (inactive)
HOP-18
  GI50: 17.6 µM (inactive)
KM-20L2
  GI50: 18.7 µM (inactive)
XF498
  GI50: 17.8 µM (inactive)

## COC(=O)[C@]1(C)CCCC2(C)C1CC[C@H]1C=C(C)[C@H]3CCC12C3 (some centres not stated)
SNB-78
  GI50: > 100 µM (inactive)
RXF 631
  GI50: > 100 µM (inactive)
KM-20L2
  GI50: > 100 µM (inactive)
XF498
  GI50: > 100 µM (inactive)

## O=[N+]([O-])c1ccc(Nc2cccc3c4cc[nH]c(-c5ccccc5)c-4nc23)c([N+](=O)[O-])c1
SNB-78
  GI50: > 100 µM (inactive)
HOP-18
  GI50: > 100 µM (inactive)
KM-20L2
  GI50: > 100 µM (inactive)
XF498
  GI50: > 100 µM (inactive)

## Cc1cc(Cl)ccc1NC(=O)CCCC(=O)C(C(=O)c1ccccc1)c1ccccc1 (configuration not stated)
SNB-78
  GI50: > 100 µM (inactive)
RXF 631
  GI50: > 100 µM (inactive)
KM-20L2
  GI50: > 100 µM (inactive)

## CC1CCCP(=O)(c2ccccc2)CC1 (configuration not stated)
SNB-78
  GI50: > 100 µM (inactive)
HOP-18
  GI50: 0.202 µM (active)
RXF 631
  GI50: > 100 µM (inactive)
KM-20L2
  GI50: > 100 µM (inactive)

## Cc1c(C2=NN=C(/N=N/c3c(O)cccc3O)/C2=C/c2ccccc2)c(=O)n(-c2ccccc2)n1C
SNB-78
  GI50: > 100 µM (inactive)
HOP-18
  GI50: > 100 µM (inactive)
KM-20L2
  GI50: > 100 µM (inactive)
XF498
  GI50: > 100 µM (inactive)

## C/C=C1/C(=Cc2[nH]c(C=c3[nH]/c(=C/C4=NC(=O)C(CC)=C4C)c(C)c3CCC(=O)O)c(CCC(=O)O)c2C)NC(=O)C1C (configuration not stated)
SNB-78
  GI50: 11.5 µM (inactive)
HOP-18
  GI50: 30.2 µM (inactive)
RXF 631
  GI50: 6.65 µM (inactive)
KM-20L2
  GI50: 2.03 µM (inactive)
XF498
  GI50: 8.63 µM (inactive)

## O=C1c2c(O)cccc2-c2nn(CCNCCO)c3ccc(NCCNCCO)c1c23 [LOSOXANTRONE HYDROCHLORIDE]
SNB-78
  GI50: 0.634 µM (active)
HOP-18
  GI50: 0.248 µM (active)
T47D
  GI50: 0.105 µM (active)
MDA-MB-231
  GI50: 0.185 µM (active)
BT-549
  GI50: 0.182 µM (active)
RXF 631
  GI50: 0.318 µM (active)
KM-20L2
  GI50: 1.66 µM (inactive)
XF498
  GI50: 0.0135 µM (active)
Hs-578T
  GI50: 0.0791 µM (active)

## COC(=O)C1=C(C(=O)OC)SC(=C(/N=N/c2ccccc2)c2ccccc2)S1
SNB-78
  GI50: > 100 µM (inactive)
HOP-18
  GI50: > 100 µM (inactive)
RXF 631
  GI50: > 100 µM (inactive)
KM-20L2
  GI50: > 100 µM (inactive)

## CCOC(=O)Nc1ccc(S(=O)(=O)OC)cc1.CCOC(=O)Nc1ccc(S(=O)(=O)OC)cc1.NC(=O)NCCO
SNB-78
  GI50: > 50 µM (inactive)
HOP-18
  GI50: 49.4 µM (inactive)
RXF 631
  GI50: 46.5 µM (inactive)
KM-20L2
  GI50: > 50 µM (inactive)

## Cc1ccc(NC(=O)/C(CC(=O)c2c[n+]([O-])c3ccccc3[n+]2[O-])=N\NC(=O)C[n+]2ccccc2)cc1
SNB-78
  GI50: > 100 µM (inactive)
HOP-18
  GI50: > 100 µM (inactive)
RXF 631
  GI50: > 100 µM (inactive)
KM-20L2
  GI50: > 100 µM (inactive)
XF498
  GI50: > 100 µM (inactive)

## O=C1c2cccc3c2C(=O)c2c(cccc21)OCCOCCOCCOCCO3
SNB-78
  GI50: > 100 µM (inactive)
HOP-18
  GI50: > 100 µM (inactive)
RXF 631
  GI50: 91.6 µM (inactive)
KM-20L2
  GI50: > 100 µM (inactive)

## Cc1nc(-n2nc(-c3ccccc3)cc2-c2ccccc2)sc1C(=O)/C=C/c1ccc(Cl)c(Cl)c1
SNB-78
  GI50: 15.6 µM (inactive)
RXF 631
  GI50: 8.26 µM (inactive)
KM-20L2
  GI50: 12.2 µM (inactive)
XF498
  GI50: 17.1 µM (inactive)
